Test results: US4346087A, “Antibacterial surface active agent containing azaalkenelactam” (priority 1979, dated 1982)
≈ marks a conversion by molar mass, not a printed value. Like-named read-outs stand apart in the source and are kept apart here.

Legend:
Streptococcus faecalis = experiment: MIC against Streptococcus faecalis; type: cell-based; conditions: Enterococcus faecalis
Source text: (§1) Below are described the antibacterial activities of the compounds in the compositions according to this invention. The results of antibacterial activity tests on the N-alkyl-substituted azaalkenelactams and their derivatives having a carboxylate radical of Examples 1 to 70 were as shown in Tables 1 to 3.
(§2) The testing method complied with the standard method of Japan Sociaty of Chemotherapy.

[1] = system: Desulfovibrio desulfuricans IFO 13699; experiment: MIC against Desulfovibrio desulfuricans; type: cell-based; conditions: Desulfovibrio desulfuricans
Source text: (§3) Below are described the antibacterial activities of the compounds in the compositions according to this invention.
as §2

Pasteurella multocida = experiment: MIC against Pasteurella multocida; type: cell-based; conditions: Pasteurella multocida
Source text: as §1, §2

[2] = system: Staphylococcus epidermidis; experiment: MIC against Staphylococcus epidermidis; type: cell-based; conditions: Staphylococcus epidermidis
Source text: as §1, §2

[3] = system: Bacillus subtilis ATCC 6633; experiment: MIC against Bacillus subtilis ATCC 6633; type: cell-based; conditions: Bacillus subtilis
Source text: as §1, §2

[4] = system: Staphylococcus aureus FDA 209P; experiment: MIC against Staphylococcus aureus FDA 209P; type: cell-based; conditions: Staphylococcus aureus, FDA209P
Source text: as §3, §2

Salmonella typhinurium = experiment: microbe, parasite or virus in culture; type: cell-based, Salmonella typhimurium
Source text: as §1, §2

Escherichia coli NIHJ = experiment: MIC against Escherichia coli NIHJ; type: cell-based; conditions: Escherichia coli
Source text: as §3, §2

[5] = system: Pseudomonas aruginosa IFO 3443; experiment: MIC against Pseudomonas aeruginosa; type: cell-based; conditions: Pseudomonas
Source text: as §1, §2

[6] = Table 3, heart infusion agar, 37° C., 24 hours, read-out: MIC
[7] = IFO13699, Table 1, azaalkenelactams, heart infusion agar, 37° C., 24 hours, read-out: MIC
[8] = Table 1, azaalkenelactams, heart infusion agar, 37° C., 24 hours, read-out: MIC

| SMILES | MIC (Streptococcus faecalis; [6]) | MIC [1, 7] | MIC (Pasteurella multocida; [6]) | MIC [2, 6] | MIC ([3]; ATCC6633, 24 h) | MIC [4, 8] | MIC (Salmonella typhinurium; [6]) | MIC (Escherichia coli NIHJ; [8]) | MIC ([5]; IFO3443, Table 3, heart infusion agar, 37° C., 24 hours, read-out: MIC) | MIC (Streptococcus faecalis; 24 h) | MIC ([1]; IFO13699, Table 2, derivatives having a carboxylate radical, heart infusion agar, 37° C., 24 hours, read-out: MIC) | MIC ([4]; Table 2, derivatives having a carboxylate radical, heart infusion agar, 37° C., 24 hours, read-out: MIC) | MIC (Salmonella typhinurium; 24 h) | MIC (Escherichia coli NIHJ; 24 h) | MIC ([5]; IFO3443, 24 h) | MIC ([1]; IFO13699, 24 h) | MIC ([4]; 24 h) | MIC ([2]; 24 h) | MIC (Pasteurella multocida; 24 h) | MIC ([3]; ATCC6633, Table 3, heart infusion agar, 37° C., 24 hours, read-out: MIC) |
| --- | --- | --- | --- | --- | --- | --- | --- | --- | --- | --- | --- | --- | --- | --- | --- | --- | --- | --- | --- | --- |
| CCCCCCCCCCCCCCC(O)CNCCN1CCN=CC(C)(C)C1=O (stereo not drawn) [Example 59, 4-(2-hydroxyhexadecyl)aminoethyl-6,6-dimethyl-3-hydro-2H-1,4-diazepin-5-one] | 6.25 µg/mL (≈ 14.8 µM) | 3.12 µg/mL (≈ 7.36 µM) | < 1.56 µg/mL | 1.56 µg/mL (≈ 3.68 µM) | 3.12 µg/mL (≈ 7.36 µM) | 6.25 µg/mL (≈ 14.8 µM) | 3.12 µg/mL (≈ 7.36 µM) | 25 µg/mL (≈ 59 µM) | 100 µg/mL (≈ 236 µM) |  |  |  |  |  |  |  |  |  |  |  |
| CCCCCCCCCCCCCCNCCN1CC[N+](CC(=O)[O-])=C(C)CC1=O [4-tetradecylaminoethyl-7-methyl-1-azonia-4-azacyclohept-7-en-5-one-1-acetate] |  |  | 3.12 µg/mL (≈ 7.36 µM) | 3.12 µg/mL (≈ 7.36 µM) | 12.5 µg/mL (≈ 29.5 µM) |  |  |  |  | 6.25 µg/mL (≈ 14.8 µM) | 3.12 µg/mL (≈ 7.36 µM) | 3.12 µg/mL (≈ 7.36 µM) | 6.25 µg/mL (≈ 14.8 µM) | 100 µg/mL (≈ 236 µM) | 100 µg/mL (≈ 236 µM) |  |  |  |  |  |
| CCCCCCCCCCCCCCNCCN1CCCN=CC(C)(C)C1=O [Example 60, 1-tetradecylaminoethyl-3,3-dimethyl-6,7,8-trihydro-1,5-diazocin-5-one] |  |  | < 1.56 µg/mL | 1.56 µg/mL (≈ 3.96 µM) | 3.12 µg/mL (≈ 7.93 µM) |  | 3.12 µg/mL (≈ 7.93 µM) |  |  | 6.25 µg/mL (≈ 15.9 µM) |  |  |  | 12.5 µg/mL (≈ 31.8 µM) | 100 µg/mL (≈ 254 µM) | 6.25 µg/mL (≈ 15.9 µM) | 6.25 µg/mL (≈ 15.9 µM) |  |  |  |
| CCCCCCCCCCCCCCNCCN1CCN=CC(C)C1=O (stereo not drawn) [Example 40, 4-tetradecylaminoethyl-6-methyl-3,6-dihydro-2H-1,4-diazepin-5-one] |  | 1.56 µg/mL (≈ 4.27 µM) | < 1.56 µg/mL | < 1.56 µg/mL | 3.12 µg/mL (≈ 8.53 µM) | 1.56 µg/mL (≈ 4.27 µM) | 3.12 µg/mL (≈ 8.53 µM) |  |  | 3.12 µg/mL (≈ 8.53 µM) |  |  |  | 6.25 µg/mL (≈ 17.1 µM) | 50 µg/mL (≈ 137 µM) |  |  |  |  |  |
| CCCCCCCCCCCCCCNCCN1CCN=CCCC1=O [Example 53, 4-tetradecylaminoethyl-2,3,6,7-tetrahydro-1,4-diazocin-5-one] |  | 3.12 µg/mL (≈ 8.53 µM) | < 1.56 µg/mL | 1.56 µg/mL (≈ 4.27 µM) | 3.12 µg/mL (≈ 8.53 µM) | 1.56 µg/mL (≈ 4.27 µM) | 3.12 µg/mL (≈ 8.53 µM) |  |  | 6.25 µg/mL (≈ 17.1 µM) |  |  |  | 6.25 µg/mL (≈ 17.1 µM) | 100 µg/mL (≈ 274 µM) |  |  |  |  |  |
| CCCCCCCCCCCC(=O)NCCN1CC[N+](CC(=O)[O-])=C(C)CC1=O [4-lauramidoethyl-7-methyl-1-azonia-4-azacyclohept-7-en-5-one-1-acetate] |  |  | < 1.56 µg/mL |  | 50 µg/mL (≈ 122 µM) |  |  |  |  | 12.5 µg/mL (≈ 30.5 µM) |  |  | 6.25 µg/mL (≈ 15.3 µM) | 100 µg/mL (≈ 244 µM) | 200 µg/mL (≈ 488 µM) | 12.5 µg/mL (≈ 30.5 µM) | 50 µg/mL (≈ 122 µM) | 12.5 µg/mL (≈ 30.5 µM) |  |  |
| CCCCCCCCCCCCCCNCCN1CCCN=CC(C)C1=O (stereo not drawn) [Example 48, 1-tetradecylaminoethyl-3-methyl-3,6,7,8-tetrahydro-1,5-diazocin-2-one] |  | 3.12 µg/mL (≈ 8.22 µM) | < 1.56 µg/mL | 1.56 µg/mL (≈ 4.11 µM) | 6.25 µg/mL (≈ 16.5 µM) | 3.12 µg/mL (≈ 8.22 µM) | 3.12 µg/mL (≈ 8.22 µM) |  |  | 6.25 µg/mL (≈ 16.5 µM) |  |  |  | 12.5 µg/mL (≈ 32.9 µM) | 50 µg/mL (≈ 132 µM) |  |  |  |  |  |
| CCCCCCCCCCCCCCC(O)CNCCN1CCCN=CC(C)(C)C1=O (stereo not drawn) [Example 61, 1-(2-hydroxyhexadecyl)aminoethyl-3,3-dimethyl-6,7,8-trihydro-1,5-diazocin-5-one] |  |  | < 1.56 µg/mL | 1.56 µg/mL (≈ 3.56 µM) | 3.12 µg/mL (≈ 7.13 µM) |  | 3.12 µg/mL (≈ 7.13 µM) |  |  | 6.25 µg/mL (≈ 14.3 µM) |  |  |  | 25 µg/mL (≈ 57.1 µM) | 200 µg/mL (≈ 457 µM) | 6.25 µg/mL (≈ 14.3 µM) | 6.25 µg/mL (≈ 14.3 µM) |  |  |  |
| CCCCCCCCCCCCCCNCCN1CCN=CC(C)(C)C1=O [Example 58, 4-tetradecylaminoethyl-6,6-dimethyl-3-hydro-2H-1,4-diazepin-5-one] | 3.12 µg/mL (≈ 8.22 µM) | 3.12 µg/mL (≈ 8.22 µM) |  |  |  | 3.12 µg/mL (≈ 8.22 µM) | 1.56 µg/mL (≈ 4.11 µM) |  |  |  |  |  |  | 6.25 µg/mL (≈ 16.5 µM) | 50 µg/mL (≈ 132 µM) |  |  | < 1.56 µg/mL | < 1.56 µg/mL | 3.12 µg/mL (≈ 8.22 µM) |
| CCCCCCCCCCCCCCC(O)CNCCN1CCN=CCC(C)C1=O (stereo not drawn) [Example 66, 4-(2-hydroxyhexadecyl)aminoethyl-6-methyl-2,3,6,7-tetrahydro-1,4-diazocin-5-one] |  |  | < 1.56 µg/mL | 1.56 µg/mL (≈ 3.68 µM) | 6.25 µg/mL (≈ 14.8 µM) |  | 3.12 µg/mL (≈ 7.36 µM) |  |  | 6.25 µg/mL (≈ 14.8 µM) |  |  |  | 25 µg/mL (≈ 59 µM) | 200 µg/mL (≈ 472 µM) | 12.5 µg/mL (≈ 29.5 µM) | 12.5 µg/mL (≈ 29.5 µM) |  |  |  |
